In experiment [1] the target is Indoleamine 2,3-dioxygenase 1 (Homo sapiens, UniProt P14902). As to the kind of experiment: Inhibition of human N-terminal His-tagged IDO1 expressed in Escherichia coli assessed as formation of N'-formyl-kynurenine using D-tryptophan as a substrate by methylene blue based assay.
For experiment [2], the target named is Tryptophan 2,3-dioxygenase (Homo sapiens) (UniProt P48775). Put plainly: Inhibition of human N-terminal His-tagged TDO expressed in Escherichia coli assessed as formation of N'-formyl-kynurenine at 1 uM using D-tryptophan as a substrate by methylene blue based assay relative to control.
A further experiment has as its system HepG2. Put plainly: Cytotoxicity against human HepG2 cells assessed as reduction in cell viability measured after 72 hrs by MTT assay. Format: cell-based. To be noted: HepG2, 72 h. Background: Tetrazolium assays rely on reduction of a dye to a coloured formazan, in cell work by metabolically active cells.
In a further experiment the test system is U-87 MG. As to the kind of experiment: Cytotoxicity against human U87 cells assessed as reduction in cell viability measured after 72 hrs by MTT assay. Format: cell-based, U-87MG ATCC.
In another experiment the test system is HGC-27. Put plainly: Cytotoxicity against human HGC-27 cells assessed as reduction in cell viability measured after 72 hrs by MTT assay. Format: cell-based. To be noted: HGC-27, 72 h.
The next experiment relates to HCT-116. Put plainly: Cytotoxicity against human HCT-116 cells assessed as reduction in cell viability measured after 72 hrs by MTT assay. Format: cell-based. To be noted: HCT-116, 72 h.
In the next experiment the test system is MCF7. Put plainly: Cytotoxicity against human MCF7 cells assessed as reduction in cell viability measured after 72 hrs by MTT assay. The class given is cell-based. The settings on record: MCF7, 72 h.

As a reminder, the IC50 is the concentration needed to halve the response being measured. The inhibition is the relative decrease from the control value, in per cent.

Tryptophan 2,3-dioxygenase (Homo sapiens), sequence (P48775 whole entry, looked up): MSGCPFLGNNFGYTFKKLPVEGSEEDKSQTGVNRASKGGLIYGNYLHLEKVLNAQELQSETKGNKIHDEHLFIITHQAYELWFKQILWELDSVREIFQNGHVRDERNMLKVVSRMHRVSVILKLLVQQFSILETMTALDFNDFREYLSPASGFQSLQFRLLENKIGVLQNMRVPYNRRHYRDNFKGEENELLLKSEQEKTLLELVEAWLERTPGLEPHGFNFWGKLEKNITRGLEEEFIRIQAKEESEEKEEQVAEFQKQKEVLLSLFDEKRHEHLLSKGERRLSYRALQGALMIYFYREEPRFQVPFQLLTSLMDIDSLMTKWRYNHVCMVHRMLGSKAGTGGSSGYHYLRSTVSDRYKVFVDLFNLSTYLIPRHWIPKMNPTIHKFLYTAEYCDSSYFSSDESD
Indoleamine 2,3-dioxygenase 1, sequence (P14902 whole entry): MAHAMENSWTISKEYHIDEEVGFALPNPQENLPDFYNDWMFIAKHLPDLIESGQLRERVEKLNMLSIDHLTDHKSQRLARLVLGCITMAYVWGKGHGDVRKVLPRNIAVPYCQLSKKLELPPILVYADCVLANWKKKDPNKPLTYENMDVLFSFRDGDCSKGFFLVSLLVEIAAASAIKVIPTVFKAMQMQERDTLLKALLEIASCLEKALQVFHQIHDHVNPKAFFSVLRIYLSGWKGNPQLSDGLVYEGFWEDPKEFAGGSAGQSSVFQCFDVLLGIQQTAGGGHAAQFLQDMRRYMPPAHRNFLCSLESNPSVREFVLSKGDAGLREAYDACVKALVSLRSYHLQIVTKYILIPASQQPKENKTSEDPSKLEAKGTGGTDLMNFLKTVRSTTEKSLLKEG

As to `COc1ccc(C(=O)NCCc2c[nH]c3c2C(=O)C2=C(C3=O)c3c(C)ccc(OC)c3CC23C(=O)N(C)C(=O)N3C)cc1` (stereo not given), in experiment [1], the IC50 turned out to be 2500 nM.

In the case of `COc1ccc(C)c2c1CC1(C(=O)N(C)C(=O)N1C)C1=C2C(=O)c2[nH]cc(CCNC(=O)c3ccc4ccccc4c3)c2C1=O` (stereo not given), in experiment [1], the half-inhibitory concentration (IC50) is over 42000 nM.

On to `COc1ccc(CC(=O)NCCc2c[nH]c3c2C(=O)C2=C(C3=O)c3c(C)ccc(OC)c3CC23C(=O)N(C)C(=O)N3C)cc1` (stereo not given), for which the IC50 in experiment [1] is 330 nM.

As for `COc1cc(/C=C/C(=O)NCCc2c[nH]c3c2C(=O)C2=C(C3=O)c3c(C)ccc(OC)c3CC23C(=O)N(C)C(=O)N3C)cc(OC)c1` (stereo not given), in experiment [1], the IC50 is over 42000 nM.

With `COc1ccc(C)c2c1CC1(C(=O)N(C)C(=O)N1C)C1=C2C(=O)c2[nH]cc(CCNCc3cccs3)c2C1=O` (stereo not given), the IC50 in experiment [1] worked out at 370 nM.

With `COc1ccc(C)c2c1CC1(C(=O)N(C)C(=O)N1C)C1=C2C(=O)c2[nH]cc(CCNC(=O)c3cc4ccccc4s3)c2C1=O` (stereo not given), the IC50 in experiment [1] is over 42000 nM.

For the compound `COc1ccc(C)c2c1CC1(C(=O)N(C)C(=O)N1C)C1=C2C(=O)c2[nH]cc(CCNCCc3ccccc3)c2C1=O` (stereo not given), the IC50 in experiment [1] amounted to 159 nM.

On to `COc1ccc(C)c2c1CC1(C(=O)N(C)C(=O)N1C)C1=C2C(=O)c2[nH]cc(CCNC(=O)c3cccc(C(F)(F)F)c3)c2C1=O` (stereo not given), for which, in experiment [1], the IC50 was over 42000 nM.

Regarding `COc1ccc(C)c2c1CC1(C(=O)N(C)C(=O)N1C)C1=C2C(=O)c2[nH]cc(CCNCc3ccccc3C)c2C1=O` (stereo not given), the IC50 in experiment [1] is 242 nM.

Consider `COC(=O)c1cccc(CNCCc2c[nH]c3c2C(=O)C2=C(C3=O)c3c(C)ccc(OC)c3CC23C(=O)N(C)C(=O)N3C)c1` (stereo not given), for which the half-maximal inhibitory concentration (IC50) in experiment [1] came out at 252 nM.

Consider `COc1ccc(C)c2c1CC1(C(=O)N(C)C(=O)N1C)C1=C2C(=O)c2[nH]cc(CCNCc3ccc(C(C)(C)C)cc3)c2C1=O` (stereo not given), for which the IC50 in experiment [1] came out at 265 nM.

For `COc1ccc(C)c2c1CC1(C(=O)N(C)C(=O)N1C)C1=C2C(=O)c2[nH]cc(CCNCc3cc(OC)c(OC)c(OC)c3)c2C1=O` (stereo not given), in experiment [1], the concentration for half-maximal inhibition (IC50) came out at 181 nM.

As to `COc1ccc(C)c2c1CC1(C(=O)N(C)C(=O)N1C)C1=C2C(=O)c2[nH]cc(CCNCc3ccccc3Br)c2C1=O` (stereo not given), the 50% inhibitory concentration (IC50) in experiment [1] was determined as 65.3 nM; in the experiment on HepG2, 1560 nM; in the experiment with U-87 MG, 1220 nM; in the experiment with HGC-27 it was 2080 nM; with HCT-116, 1350 nM; in the experiment with MCF7, 1520 nM. Further, the inhibition in experiment [2] came out at 0%.

For the compound `COc1ccc(C)c2c1CC1(C(=O)N(C)C(=O)N1C)C1=C2C(=O)c2[nH]cc(CCNC(=O)c3cc4ccccc4o3)c2C1=O` (stereo not given), in experiment [1], the IC50 was 631 nM.

For the compound `COc1ccc(C)c2c1CC1(C(=O)N(C)C(=O)N1C)C1=C2C(=O)c2[nH]cc(CCNC(=O)c3ccc4ccccc4n3)c2C1=O` (stereo not given), the half-maximal inhibitory concentration (IC50) in experiment [1] is over 42000 nM.

With `COc1ccc(C)c2c1CC1(C(=O)N(C)C(=O)N1C)C1=C2C(=O)c2[nH]cc(CCNCc3cc4ccccc4s3)c2C1=O` (stereo not given), the half-maximal inhibitory concentration (IC50) in experiment [1] stood at 621 nM.

`COc1ccc(C)c2c1CC1(C(=O)N(C)C(=O)N1C)C1=C2C(=O)c2[nH]cc(CCNC(=O)Cc3cccc(C(F)(F)F)c3)c2C1=O` (stereo not given): the IC50 in experiment [1] came out at 441 nM.

In the case of `COc1ccc(C)c2c1CC1(C(=O)N(C)C(=O)N1C)C1=C2C(=O)c2[nH]cc(CCNCc3ccc(C)c(C)c3)c2C1=O` (stereo not given), the half-maximal inhibitory concentration (IC50) in experiment [1] worked out at 234 nM.

Take `COc1ccc(C)c2c1CC1(C(=O)N(C)C(=O)N1C)C1=C2C(=O)c2[nH]cc(CCNCc3ccc(C(F)(F)F)cc3)c2C1=O` (stereo not given): the IC50 in experiment [1] was found to be 161 nM.

With `COc1ccc(C)c2c1CC1(C(=O)N(C)C(=O)N1C)C1=C2C(=O)c2[nH]cc(CCNCc3cc(F)cc(F)c3)c2C1=O` (stereo not given), the IC50 in experiment [1] stood at 213 nM.

With `COc1ccc(C)c2c1CC1(C(=O)N(C)C(=O)N1C)C1=C2C(=O)c2[nH]cc(CCNC(=O)/C=C/c3cccc(C(F)(F)F)c3)c2C1=O` (stereo not given), the IC50 in experiment [1] is over 42000 nM.

As for `COc1ccc(C)c2c1CC1(C(=O)N(C)C(=O)N1C)C1=C2C(=O)c2[nH]cc(CCNCc3cccc(Cl)c3)c2C1=O` (stereo not given), the concentration for half-maximal inhibition (IC50) in experiment [1] is 150 nM; in the experiment on HepG2, over 50000 nM; with U-87 MG, over 50000 nM; in the experiment with HGC-27, over 50000 nM; with HCT-116, over 50000 nM; in the experiment with MCF7, over 50000 nM. For the same compound, the inhibition in experiment [2] came to 0%.

Turning to `COc1ccc(C)c2c1CC1(C(=O)N(C)C(=O)N1C)C1=C2C(=O)c2[nH]cc(CCNC(=O)c3ccc(Cl)cc3)c2C1=O` (stereo not given), the 50% inhibitory concentration (IC50) in experiment [1] was over 42000 nM.

On to `COc1ccc(C)c2c1CC1(C(=O)N(C)C(=O)N1C)C1=C2C(=O)c2[nH]cc(CCNCc3cccc(OC)c3OC)c2C1=O` (stereo not given), for which the half-maximal inhibitory concentration (IC50) in experiment [1] turned out to be 248 nM.

For the compound `COc1ccc(C)c2c1CC1(C(=O)N(C)C(=O)N1C)C1=C2C(=O)c2[nH]cc(CCNCc3ccc(-c4ccccc4)cc3)c2C1=O` (stereo not given), the IC50 in experiment [1] stood at 954 nM.

Take `COc1ccc(C)c2c1CC1(C(=O)N(C)C(=O)N1C)C1=C2C(=O)c2[nH]cc(CCNCc3ccccc3)c2C1=O` (stereo not given): the IC50 in experiment [1] amounted to 173 nM.

In the case of `COc1ccc(C)c2c1CC1(C(=O)N(C)C(=O)N1C)C1=C2C(=O)c2[nH]cc(CCNCc3ccc4ccccc4c3)c2C1=O` (stereo not given), the IC50 in experiment [1] was determined as 271 nM.

Regarding `COc1ccc(C)c2c1CC1(C(=O)N(C)C(=O)N1C)C1=C2C(=O)c2[nH]cc(CCNC(=O)c3cc(OC)c(OC)c(OC)c3)c2C1=O` (stereo not given), the IC50 in experiment [1] was over 42000 nM.

As for `COc1ccc(C)c2c1CC1(C(=O)N(C)C(=O)N1C)C1=C2C(=O)c2[nH]cc(CCNC(=O)OC(C)(C)C)c2C1=O` (stereo not given), in experiment [1], the concentration for half-maximal inhibition (IC50) is 467 nM.

For `COc1ccc(C)c2c1CC1(C(=O)N(C)C(=O)N1C)C1=C2C(=O)c2[nH]cc(CCNC(=O)c3cccs3)c2C1=O` (stereo not given), in experiment [1], the 50% inhibitory concentration (IC50) is 220 nM.

`COc1ccc(C)c2c1CC1(C(=O)N(C)C(=O)N1C)C1=C2C(=O)c2[nH]cc(CCNC(=O)c3ccccc3)c2C1=O` (stereo not given): the IC50 in experiment [1] stood at 210 nM; in the experiment on HepG2 it was 3530 nM; in the experiment on U-87 MG it was 2740 nM; in the experiment on HGC-27 it was 4000 nM; in the experiment with HCT-116, 1700 nM; with MCF7 it was 5350 nM. For the same compound, the inhibition in experiment [2] was 0%.

As for `COc1ccc(C)c2c1CC1(C(=O)N(C)C(=O)N1C)C1=C2C(=O)c2[nH]cc(CCNC(=O)c3ccccn3)c2C1=O` (stereo not given), the IC50 in experiment [1] amounted to 430 nM.

On to `COc1ccc(C)c2c1CC1(C(=O)N(C)C(=O)N1C)C1=C2C(=O)c2[nH]cc(CCN(C)C)c2C1=O` (stereo not given), for which the IC50 was 101 nM in experiment [1]; over 50000 nM in the experiment with HepG2; over 50000 nM in the experiment on U-87 MG; over 50000 nM in the experiment with HGC-27; over 50000 nM in the experiment on HCT-116; over 50000 nM in the experiment on MCF7. For the same compound, in experiment [2], the inhibition was 0%.

For `NS(=O)(=O)NCCNc1nonc1/C(=N/O)Nc1ccc(F)c(Br)c1` [EPACADOSTAT], the IC50 with HepG2, with U-87 MG, with HGC-27, with HCT-116 and in the experiment on MCF7 was over 50000 nM in each case.

Turning to `COc1ccc(C)c2c1CC1(C(=O)N(C)C(=O)N1C)C1=C2C(=O)c2[nH]cc(CCNC(=O)/C=C/c3ccccc3)c2C1=O` (stereo not given), in experiment [1], the IC50 worked out at 578 nM.

Take `COc1ccc(C)c2c1CC1(C(=O)N(C)C(=O)N1C)C1=C2C(=O)c2[nH]cc(CCNC(=O)c3ccc(C(C)C)cc3)c2C1=O` (stereo not given): in experiment [1], the 50% inhibitory concentration (IC50) is over 42000 nM.

Consider `COc1ccc(C)c2c1CC1(C(=O)N(C)C(=O)N1C)C1=C2C(=O)c2[nH]cc(CCNC(=O)c3cc4ccccc4[nH]3)c2C1=O` (stereo not given), for which the half-inhibitory concentration (IC50) in experiment [1] was over 42000 nM.

Take `COc1ccc(C)c2c1CC1(C(=O)N(C)C(=O)N1C)C1=C2C(=O)c2[nH]cc(CCNC(=O)c3ccccc3Br)c2C1=O` (stereo not given): the IC50 in experiment [1] was determined as 250 nM.

Take `COc1ccc(C)c2c1CC1(C(=O)N(C)C(=O)N1C)C1=C2C(=O)c2[nH]cc(CCNCC(C)(C)C)c2C1=O` (stereo not given): the IC50 is 79.3 nM in experiment [1]; over 50000 nM with HepG2; over 50000 nM in the experiment on U-87 MG; over 50000 nM with HGC-27; over 50000 nM with HCT-116; over 50000 nM in the experiment on MCF7. The inhibition in experiment [2] was determined as 0%.

For `COc1ccc(C)c2c1CC1(C(=O)N(C)C(=O)N1C)C1=C2C(=O)c2[nH]cc(CCNC(=O)c3ccco3)c2C1=O` (stereo not given), the concentration for half-maximal inhibition (IC50) in experiment [1] worked out at 209 nM; with HepG2 it was 4180 nM; in the experiment with U-87 MG, 2590 nM; in the experiment on HGC-27, 3160 nM; in the experiment on HCT-116, 2150 nM; with MCF7 it was 6910 nM. Moreover, the inhibition in experiment [2] came to 0%.

The record behind these values is ChEMBL document CHEMBL4831485, “Design, synthesis and biological evaluation of exiguamine A analogues as IDO1 inhibitors” (Eur J Med Chem, 2021).
